Results as given in patent publication US20060258581A1, “Methods and composition for derepressions of IAP-inhibited caspase” (priority 2001, published 2006).

What was measured:
[1] = test system: caspase-3 and caspase-7 activity in Jurkat cells; test: Caspase-3 and caspase-7 activity in whole Jurkat cells, cell permeable substrate; assay type: cell-based; settings: 8 μM, 20 hours
[2] = test system: tumor cells pulsed with specific antigen, antigen-specific T cells; test: Antigen-specific CTL cytotoxicity, 51Cr release; assay type: cell-based; settings: 10 μM, 4 hours
Procedure: After 4 hours, ^51Cr release was measured. Data shown in FIG. 39 are expressed as a percentage of total release induced by detergent lysis, and data represent mean±standard deviation of duplicate determinations.

[3] = test system: Jurkat leukemia cells; test: Jurkat leukemia cell death, Annexin V/propidium iodide flow cytometry; assay type: cell-based
[4] = target: T1, XIAP-inhibited caspase-3 (Homo sapiens, UniProt P98170); test: IAP derepression assay: Ac-DEVD-AFC hydrolysis by caspase-3 in the presence of GST-XIAP; assay type: biochemical; settings: in words
T1 construct: in a caspase derepression assay using full length XIAP; made in house; host or cells: bacteria
Procedure: The ratio of Vmax for hydrolysis of Ac-DEVD-AFC in the presence and absence of the candidate mixture was calculated and used to identify those that contain an agent that derepresses an IAP-inhibited caspase.
Each mixture was aliquoted in a 25 microliter volume and in duplicate to a well of a 96 well microtiter plate. […] Fluorescence of liberated AFC was immediately detected from each well for 30 minutes at 30 second intervals. The Vmax for hydrolysis of AC-DEVD-AFC from each well was measured using the softmax software package.

T1 sequence (P98170 whole entry): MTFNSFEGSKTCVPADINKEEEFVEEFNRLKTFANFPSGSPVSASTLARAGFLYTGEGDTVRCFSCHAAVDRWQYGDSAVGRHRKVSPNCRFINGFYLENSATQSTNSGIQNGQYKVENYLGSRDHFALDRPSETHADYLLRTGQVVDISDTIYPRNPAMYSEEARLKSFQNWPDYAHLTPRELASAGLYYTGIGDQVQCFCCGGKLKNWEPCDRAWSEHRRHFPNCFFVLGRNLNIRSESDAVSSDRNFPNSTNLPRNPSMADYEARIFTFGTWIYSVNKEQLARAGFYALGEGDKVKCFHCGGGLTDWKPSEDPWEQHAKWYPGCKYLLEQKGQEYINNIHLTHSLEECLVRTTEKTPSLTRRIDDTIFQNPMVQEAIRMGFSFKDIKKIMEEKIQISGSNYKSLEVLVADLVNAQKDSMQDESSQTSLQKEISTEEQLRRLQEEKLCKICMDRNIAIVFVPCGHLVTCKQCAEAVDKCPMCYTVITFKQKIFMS

COc1ccc(CCN2CCC[C@@H]2CN(C(=O)Nc2ccccc2)[C@@H](CNC(=O)Nc2ccccc2)CC2CCCCC2)cc1 [TPI 1396-34]
caspase activation in whole cells [1]: induced caspase activation | CTL-mediated lysis of tumor targets [2]: sensitizes tumor targets to CTL-mediated lysis | time to half-maximal killing ([3]; 10 µM): approximately 12 hours | apoptosis in the presence of zVAD-fmk ([3]; 100 μM zVAD-fmk, 20 hours): suppressible | activity in the caspase derepression assay using full length XIAP [4]: active XIAP inhibitors
